According to patent US20240342292A1, “Compounds for the Degradation of EGFR Kinase” (BeiGene Switzerland GmbH, priority 2021, published 2024):

Key:
[1] = tested on: Del19/T790M/C797S EGFR; test: EGFR degradation HTRF assay in H1975-clone #28 (DTC) cells; assay type: cell-based; details: H1975 # 28 DTC (Del19/T790M/C797S), 16h treatment; for DC50: HTRF; for Dmax (%): maximum percentage of degradation
From the text: (§1) H1975-clone #28(Del19/T790M/C797S, or abbr: DTC), H1975-clone #23(Del19/C797S, or abbr: DC), H1975-clone #25(L858R/T790M/C797S, or abbr: LTC) and H1975-clone #8 (L858R/C797S, or abbr: LC). EGFR-Del19:T790M/C797S, EGFR-Del19/C797S, EGFR-L858R/T790M/C797S and EGFR-L858R/C797S were stably expressed in H1975 cell lines by lentivirus-mediated over-expression, respectively. The EGFR over-expressed cells then underwent knockout, in which the EGFR targeting sgRNA was designed to only target the endogenous EGFR copies and preserve the exogenous EGFR copies. Followed by the knockout, the edited H1975 cells were seeded in 96 well plates at the concentration of […], cultured for about 2 weeks to allow single clones formation. The formed clones were screened by DNA sequencing and whole exon sequencing analysis for the desired edition. H1975-clone #28, H1975-clone #23, H1975-clone #25 and H1975-clone #8 were finally confirmed as homozygous Del19/T790M/C797S EGFR, Dell9/C797S EGFR, L858R/T790M/C797S EGFR and L858R/C797S EGFR clones, respectively.
(§2) H1975-#25, H1975-#28, H1975-#23 and H1975-#8 cells are treated with compounds diluted in 0.2% DMSO cell culture medium on day 2, incubate for 16h, 37° C., 5% CO2. the final concentration of compounds in all assay is start with 10 uM, 5-fold dilution, total 8 doses were included.
(§3) After 16h treatment, add HTRF lysis buffer to each well; seal the plate and incubate 1 hour at room temperature on a plate shaker; Once the cells are lysed, 16 μL of cell lysate are transferred to a PE 384-well HTRF detection plate; 4 μL of pre-mixed HTRF antibodies are added to each well; Cover the plate with a plate sealer, spin 1000 rpm for 1 min, Incubate overnight at room temperature; Read on BMG PheraStar with HTRF protocol (337 nm-665 nm-620 nm).
(§4) The IC50 (DC50) value of a compound can be obtained by fitting the following equation
(§5) Y=Bottom+(TOP−Bottom)/(1+((IC50/X)^hillslope))
(§6) Wherein, X and Y are known values, and IC50, Hillslope, Top and Bottom are the parameters obtained by fitting with software. Y is the inhibition percentage (calculated from the equation), X is the concentration of the compound: IC50 is the concentration of the compound when the 50% inhibition is reached. The smaller the IC50 value is, the stronger the inhibitory ability of the compound is. Vice versa, the higher the IC50 value is, the weaker the ability the inhibitory ability of the compound is: Hillslope represents the slope of the fitted curve, generally around 1*; Bottom represents the minimum value of the curve obtained by data fitting, which is generally 0%±20%; Top represents the maximum value of the curve obtained by data fitting, which is generally 100%±20%. The experimental data were fitted by calculating and analyzing with Dotmatics data analysis software.

[2] = molecular target: T1, L858R/T790M/C797S EGFR (Homo sapiens, UniProt P00533, C797S/L858R/T790M); test: EGFR degradation HTRF assay in H1975-clone #25 (LTC) cells; assay type: cell-based; details: 16h treatment; for DC50: H1975 # 25-LTC (L858R/T790M/C797S), HTRF; for Dmax: NCI-H1975, H1975 # 25-LTC (L858R/T790M/C797S), maximum percentage of degradation
T1 construct: expressed in transfected cells; host or cells: H1975 clone #25 (lentiviral over-expression, endogenous EGFR knocked out by sgRNA)
T1 sequence (P00533 25-1210 T790M/C797S/L858R): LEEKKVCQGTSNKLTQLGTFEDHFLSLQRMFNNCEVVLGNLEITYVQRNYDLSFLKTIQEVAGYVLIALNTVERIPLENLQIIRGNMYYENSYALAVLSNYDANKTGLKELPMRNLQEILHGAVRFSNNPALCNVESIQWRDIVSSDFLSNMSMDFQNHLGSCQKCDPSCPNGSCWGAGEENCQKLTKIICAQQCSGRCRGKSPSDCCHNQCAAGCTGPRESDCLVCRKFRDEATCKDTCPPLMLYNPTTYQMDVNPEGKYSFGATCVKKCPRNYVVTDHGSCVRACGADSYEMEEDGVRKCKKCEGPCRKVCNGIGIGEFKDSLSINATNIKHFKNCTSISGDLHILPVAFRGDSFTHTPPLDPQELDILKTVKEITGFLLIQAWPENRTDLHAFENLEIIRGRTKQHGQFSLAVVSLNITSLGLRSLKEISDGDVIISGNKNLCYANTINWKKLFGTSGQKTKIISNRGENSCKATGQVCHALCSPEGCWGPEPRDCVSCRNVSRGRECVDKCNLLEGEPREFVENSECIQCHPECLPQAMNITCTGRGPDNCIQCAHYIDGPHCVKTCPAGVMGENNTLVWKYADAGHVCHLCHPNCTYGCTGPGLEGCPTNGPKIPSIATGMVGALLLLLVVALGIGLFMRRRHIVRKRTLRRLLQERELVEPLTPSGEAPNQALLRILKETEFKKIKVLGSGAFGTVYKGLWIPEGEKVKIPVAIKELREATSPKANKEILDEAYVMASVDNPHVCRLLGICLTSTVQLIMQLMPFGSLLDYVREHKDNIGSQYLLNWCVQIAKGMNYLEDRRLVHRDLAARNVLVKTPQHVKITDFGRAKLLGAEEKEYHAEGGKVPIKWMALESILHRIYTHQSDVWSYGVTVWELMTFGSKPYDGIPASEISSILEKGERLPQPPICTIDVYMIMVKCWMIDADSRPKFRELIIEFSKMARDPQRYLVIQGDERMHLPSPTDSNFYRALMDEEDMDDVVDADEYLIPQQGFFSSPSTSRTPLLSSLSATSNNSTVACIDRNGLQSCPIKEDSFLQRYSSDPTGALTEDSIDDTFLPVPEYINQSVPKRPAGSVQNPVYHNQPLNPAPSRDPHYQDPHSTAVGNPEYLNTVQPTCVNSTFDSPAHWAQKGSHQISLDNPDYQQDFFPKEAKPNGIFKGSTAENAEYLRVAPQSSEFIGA
From the text: as §1, §2, §3, §4, §5, §6

Compound | DC50 [1] [nM] | DC50 [2] [nM] | Dmax [2] [%] | Dmax (%) [1] [%]
Cc1cc2cc(n1)-c1cnn(C)c1OCCC[C@@H](C)CN1/C(=N/C2=O)Nc2ccc(CN3CCC4(CC3)CN(C(=O)[C@@H]3CCN(c5cc(F)c([C@H]6CCC(=O)NC6=O)c(F)c5)C3)C4)cc21 [Example 20, (R)-3-(2,6-difluoro-4-((R)-3-(7-(((R,E)-1^1,2^6,7-trimethyl-3-oxo-5^2,5^3-dihydro-1^1H,5^1H-li-oxa-4-aza-5(2,1)-benzo[d]imidazola-2(2,4)-pyridina-1(4,5)-pyrazolacycloundecaphane-5^6-yl)methyl)-2,7-diazaspiro[3.5]nonane-2-carbonyl)pyrrolidin-1-yl)phenyl)piperidine-2,6-dione] | 0.7 | 0.9 | 89 | 79.0
Cc1cc2cc(n1)-c1cnn(C)c1OCCC[C@@H](C)CN1/C(=N/C2=O)Nc2ccc(CN3CCC4(CC3)CN(CCc3cc(F)c([C@H]5CCC(=O)NC5=O)c(F)c3)C4)cc21 [Example 23, (R)-3-(2,6-difluoro-4-(2-(7-(((R,E)-1^1,2^6,7-trimethyl-3-oxo-5^2,5^3-dihydro-1^1H,5^1H-11-oxa-4-aza-5(2,1)-benzo[d]imidazola-2(2,4)-pyridina-1(4,5)-pyrazolacycloundecaphane-5^6-yl)methyl)-2,7-diazaspiro[3.5]nonan-2-yl)ethyl)phenyl)piperdine-2,6-dione] | 2.1 | 2.3 | 91.8 | 78.0
Cc1cc2cc(n1)-c1cnn(C)c1OCCC[C@@H](C)CN1/C(=N/C2=O)Nc2ccc(CN3CCC4(CC3)CN(C(=O)[C@H]3CN(c5cc(F)c([C@H]6CCC(=O)NC6=O)c(F)c5)CC3(C)C)C4)cc21 [Example 26, (R)-3-(4-((R)-3,3-dimethyl-4-(7-(((R,E)-1^1,2^6,7-trimethyl-3-oxo-5^2,5^3-dihydro-1^1H,5^1H-11-oxa-4-aza-5(2,1)-benzo[d]imidazola-2(2,4)-pyridina-(4,5)-pyrazolacycloundecaphane-5^6-yl)methyl)-2,7-diazaspiro[3.5]nonane-2-carbonyl)pyrrolidin-1-yl)-2,6-difluorophenyl)piperidine-2,6-dione] | 2.4 | 2 | 93.7 | 81.2

Second part, led by results:

DC50 [1] [nM] | DC50 [2] [nM] | Dmax [2] [%] | Compound | Dmax (%) [1] [%]
1.48 | 2.92 | 82 | Cc1cc2cc(n1)-c1cnn(C)c1OCCC[C@@H](C)CN1/C(=N/C2=O)Nc2ccc(CN3CCN(C(=O)[C@@H]4CCN(c5cc(F)c([C@H]6CCC(=O)NC6=O)c(F)c5)C4)CC3)c(F)c21 [Example 59, (R)-3-(2,6-difluoro-4-((R)-3-(4-(((R,E)-5^7-fluoro-1^1,2^6,7-trimethyl-3-oxo-5^2,5^3-dihydro-1^1H,5^1H-11-oxa-4-aza-5(2,1)-benzo[d]imidazola-2(2,4)-pyridina-1(4,5)-pyrazolacycloundecaphane-5^6-yl)methyl)piperazine-1-carbonyl)pyrrolidin-1-yl)phenyl)piperidine-2,6-dione] | 78.58
1.51 | 3.13 | 76.8 | Cc1cc2cc(n1)-c1c(C(F)F)nn(C)c1OCCC[C@@H](C)CN1/C(=N/C2=O)Nc2ccc(CN3CCN(C(=O)C4CN(c5cc(F)c([C@H]6CCC(=O)NC6=O)c(F)c5)C4)CC3)cc21 [Example 64, (R)-3-(4-(3-(4-(((R,E)-13-(difluoromethyl)-1^1,2^6,7-trimethyl-3-oxo-5^2,5^3-dihydro-1^1H,5^1H-11-oxa-4-aza-5(2,1)-benzo[d]imidazola-2(2,4)-pyridina-1(4,5)-pyrazolacycloundecaphane-5^6-yl)methyl)piperazine-1-carbonyl)azetidin-1-yl)-2,6-difluorophenyl)piperidine-2,6-dione] | 80.65
